Test results: patent publication US10689377B2 (Mirati Therapeutics, Inc., priority 2017, dated 2020)

Molecular target: KRas G12C (Homo sapiens, UniProt P01116, G12C)
Experiment: Cellular inhibition of KRas G12C measured by Phospho-ERK in NCI-H358 cells
Type: cell-based
Details: pERK(Thr202/Tyr204) normalized with GAPDH, NCI-H358 cells, 3 hours; read-out: IC50
How it was run: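 Ratio of phospho-ERK(Thr202/Tyr204) to GAPDH, read by near-infrared secondary antibodies on fixed, permeabilised NCI-H358 cells, expressed relative to DMSO control. Compound exposure was 3 h at 0.5% DMSO. IC50 values come from 4-parameter curve fits.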

Sequence of KRas G12C (P01116 1-188 isoform P01116-2 G12C): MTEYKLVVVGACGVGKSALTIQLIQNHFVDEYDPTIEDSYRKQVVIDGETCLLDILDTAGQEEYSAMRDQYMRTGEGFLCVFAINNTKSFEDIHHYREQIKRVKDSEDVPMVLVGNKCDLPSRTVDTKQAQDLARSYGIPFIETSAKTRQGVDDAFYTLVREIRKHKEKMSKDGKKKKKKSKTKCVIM

IC50 [µM]	SMILES
0.0001 to 1	C=CC(=O)N1CCN(c2nc(OC[C@@H]3CCCN3CC)nc3c2CCN(c2cccc4ccccc24)C3)CC1CC#N (stereo partly drawn) [Example 233, 2-(1-acryloyl-4-(2-(((S)-1-ethylpyrrolidin-2-yl)methoxy)-7-(naphthalen-1-yl)-5,6,7,8-tetrahydropyrido[3,4-d]pyrimidin-4-yl)piperazin-2-yl)acetonitrile]
> 1	C=CC(=O)N1CCN(c2nc(OCCCN3CCOCC3)nc3c2CCN(c2cc(O)cc4ccccc24)C3)C(CO)C1 (stereo not drawn) [Example 168, 1-(3-(hydroxymethyl)-4-(7-(3-hydroxynaphthalen-1-yl)-2-(3-morpholinopropoxy)-5,6,7,8-tetrahydropyrido[3,4-d]pyrimidin-4-yl)piperazin-1-yl)prop-2-en-1-one]
0.0001 to 1	C=CC(=O)N1CCN(c2nc(OC[C@@H]3CCCN3C)nc3c2CCN(c2cccc4cc(F)ccc24)C3)CC1CC#N (stereo partly drawn) [Example 290, 2-[4-[7-(6-fluoro-1-naphthyl)-2-[[(2S)-1-methylpyrrolidin-2-yl]methoxy]-6,8-dihydro-5H-pyrido[3,4-d]pyrimidin-4-yl]-1-prop-2-enoyl-piperazin-2-yl]acetonitrile]
> 1	C=CC(=O)N1CCN(c2nc(OC[C@@H]3CCCN3C)nc3c2CCN(c2cccc4ccccc24)C3)C[C@@H]1CCOC [Example 433, 1-((S)-2-(2-methoxyethyl)-4-(2-(((S)-1-methylpyrrolidin-2-yl)methoxy)-7-(naphthalen-1-yl)-5,6,7,8-tetrahydropyrido[3,4-d]pyrimidin-4-yl)piperazin-1-yl)prop-2-en-1-one]
> 1	C=CC(=O)N1CCN(c2nc(OCCN(CC)CC)nc3c2CCN(c2c(C)ccc4[nH]ncc24)C3)CC1 [Example 163, 1-(4-(2-(2-(diethylamino)ethoxy)-7-(5-methyl-1H-indazol-4-yl)-5,6,7,8-tetrahydropyrido[3,4-d]pyrimidin-4-yl)piperazin-1-yl)prop-2-en-1-one]
0.0001 to 1	C=CC(=O)N1CCN(c2nc(OC[C@@H]3CCCN3C)nc3c2CCN(c2ccccc2Cl)C3)CC1CC#N (stereo partly drawn) [Example 229]
0.0001 to 1	C=CC(=O)N1CCN(c2nc(OC[C@@H]3CCCN3C)nc3c2CCN(c2cncc(Cl)c2C(F)(F)F)C3)C[C@@H]1CC#N [Example 385, 2-((S)-1-acryloyl-4-(7-(5-chloro-4-(trifluoromethyl)pyridin-3-yl)-2-(((S)-1-methylpyrrolidin-2-yl)methoxy)-5,6,7,8-tetrahydropyrido[3,4-d]pyrimidin-4-yl)piperazin-2-yl)acetonitrile]
0.0001 to 1	C=CC(=O)N1CCN(c2nc(OCCN(CC)CC)nc3c2CCN(c2ccccc2C(F)(F)F)C3)CC1CC#N (stereo not drawn) [Example 300, 2-[4-[2-[2-(diethylamino)ethoxy]-7-[2-(trifluoromethyl)phenyl]-6,8-dihydro-5H-pyrido[3,4-d]pyrimidin-4-yl]-1-prop-2-enoyl-piperazin-2-yl]acetonitrile]
> 1	C=CC(=O)N1CCN(c2nc(OC[C@@H]3CCCN3C)nc3c2CCN(c2c(OC)ccc4[nH]ncc24)C3)CC1 [Example 157]
0.0001 to 1	C=CC(=O)N1CCN(c2nc(OC[C@@H]3CCN(C)C3)nc3c2CCN(c2cccc4ccccc24)C3)C[C@@H]1CC#N [Example 410, 2-((S)-1-acryloyl-4-(2-(((R)-1-methylpyrrolidin-3-yl)methoxy)-7-(naphthalen-1-yl)-5,6,7,8-tetrahydropyrido[3,4-d]pyrimidin-4-yl)piperazin-2-yl)acetonitrile]
0.0001 to 1	Cc1cccc(N2CCc3c(nc(OC[C@@H]4CCCN4C)nc3N3CCN(C(=O)/C=C/C(F)(F)F)[C@@H](CC#N)C3)C2)c1C [Example 486, 2-((S)-4-(7-(2,3-dimethylphenyl)-2-(((S)-1-methylpyrrolidin-2-yl)methoxy)-5,6,7,8-tetrahydropyrido[3,4-d]pyrimidin-4-yl)-1-((E)-4,4,4-trifluorobut-2-enoyl)piperazin-2-yl)acetonitrile]
0.0001 to 1	C=CC(=O)N1CCN(c2nc(OC[C@@H]3CCCN3C)nc3c2CCN(c2cccc(F)c2Cl)C3)C[C@@H]1CC#N [Example 406, 2-((S)-1-acryloyl-4-(7-(2-chloro-3-fluorophenyl)-2-(((S)-1-methylpyrrolidin-2-yl)methoxy)-5,6,7,8-tetrahydropyrido[3,4-d]pyrimidin-4-yl)piperazin-2-yl)acetonitrile]
> 1	C=CC(=O)N1C[C@H](C)N(c2nc(OC[C@@H]3CCCN3C)nc3c2CCN(c2cccc4ccccc24)C3)C[C@@H]1CC#N [Example 368, 2-((2S,5S)-1-acryloyl-5-methyl-4-(2-(((S)-1-methylpyrrolidin-2-yl)methoxy)-7-(naphthalen-1-yl)-5,6,7,8-tetrahydropyrido[3,4-d]pyrimidin-4-yl)piperazin-2-yl)acetonitrile]
0.0001 to 1	C=CC(=O)N1CCN(c2nc(OC[C@H]3CCCN3C)nc3c2CCN(c2ccccc2C(F)(F)F)C3)CC1CC#N (stereo partly drawn) [Example 283, 2-(1-acryloyl-4-(2-(((R)-1-methylpyrrolidin-2-yl)methoxy)-7-(2-(trifluoromethyl)phenyl)-5,6,7,8-tetrahydropyrido[3,4-d]pyrimidin-4-yl)piperazin-2-yl)acetonitrile]
0.0001 to 1	C=C(F)C(=O)N1CCN(c2nc(OC[C@@H]3CCCN3C)nc3c2CCN(c2c(C)c(C)cc4[nH]ncc24)C3)C[C@@H]1CC#N [Example 604, 2-[(2S)-4-[7-(5,6-dimethyl-1H-indazol-4-yl)-2-[[(2S)-1-methylpyrrolidin-2-yl]methoxy]-6,8-dihydro-5H-pyrido[3,4-d]pyrimidin-4-yl]-1-(2-fluoroprop-2-enoyl)piperazin-2-yl]acetonitrile]
> 1	C=CC(=O)N1CCN(c2nc(OC[C@@H]3CCCN3C)nc3c2CCN(c2cccc4cnccc24)C3)CC1CC#N (stereo partly drawn) [Example 262, 2-[4-[7-(5-isoquinolyl)-2-[[(2S)-1-methylpyrrolidin-2-yl]methoxy]-6,8-dihydro-5H-pyrido[3,4-d]pyrimidin-4-yl]-1-prop-2-enoyl-piperazin-2-yl]acetonitrile]
0.0001 to 1	C=CC(=O)N1C[C@@H](C)N(c2nc(OC[C@@H]3CCCN3C)nc3c2CCN(c2cccc4ccccc24)C3)C[C@@H]1CC#N [Example 378, 2-((2S,5R)-1-acryloyl-5-methyl-4-(2-(((S)-1-methylpyrrolidin-2-yl)methoxy)-7-(naphthalen-1-yl)-5,6,7,8-tetrahydropyrido[3,4-d]pyrimidin-4-yl)piperazin-2-yl)acetonitrile]
0.0001 to 1	C=CC(=O)N1CCN(c2nc(OC[C@@H]3CCN(C)C3)nc3c2CCN(c2ccccc2C(F)(F)F)C3)CC1CC#N (stereo partly drawn) [Example 298, 2-(1-acryloyl-4-(2-(((R)-1-methylpyrrolidin-3-yl)methoxy)-7-(2-(trifluoromethyl)phenyl)-5,6,7,8-tetrahydropyrido[3,4-d]pyrimidin-4-yl)piperazin-2-yl)acetonitrile]
0.0001 to 1	C=CC(=O)N1CCN(c2nc(OC[C@@H]3CCCN3C(C)C)nc3c2CCN(c2cc(O)cc4ccccc24)C3)CC1 [Example 145, 1-[4-[7-(3-hydroxy-1-naphthyl)-2-[[(2S)-1-isopropylpyrrolidin-2-yl]methoxy]-6,8-dihydro-5H-pyrido[3,4-d]pyrimidin-4-yl]piperazin-1-yl]prop-2-en-1-one]
0.0001 to 1	C=CC(=O)N1CCN(c2nc(OC[C@H]3CN(C)CCO3)nc3c2CCN(c2cccc4cccc(Cl)c24)C3)C[C@@H]1CC#N [Example 363, 2-[(2S)-4-[7-(8-chloro-1-naphthyl)-2-[[(2R)-4-methylmorpholin-2-yl]methoxy]-6,8-dihydro-5H-pyrido[3,4-d]pyrimidin-4-yl]-1-prop-2-enoyl-piperazin-2-yl]acetonitrile]
> 1	C=CC(=O)N1CCN(c2nc(OC(C)CCN3CCOCC3)nc3c2CCN(c2cc(O)cc4ccccc24)C3)CC1 (stereo not drawn) [Example 93, 1-(4-(7-(3-hydroxynaphthalen-1-yl)-2-((4-morpholinobutan-2-yl)oxy)-5,6,7,8-tetrahydropyrido[3,4-d]pyrimidin-4-yl)piperazin-1-yl)prop-2-en-1-one]
0.0001 to 1	C=CC(=O)N1CCN(c2nc(OC[C@@H]3CCCN3CCOC)nc3c2CCN(c2cccc4ccccc24)C3)CC1CC#N (stereo partly drawn) [Example 380, 2-(1-acryloyl-4-(2-(((S)-1-(2-methoxyethyl)pyrrolidin-2-yl)methoxy)-7-(naphthalen-1-yl)-5,6,7,8-tetrahydropyrido[3,4-d]pyrimidin-4-yl)piperazin-2-yl)acetonitrile]
0.0001 to 1	C=CC(=O)N1CCN(c2nc(OCCCN3CCN(C)CC3)nc3c2CCN(c2cc(O)cc4ccccc24)C3)CC1 [Example 82, 1-(4-(7-(3-hydroxynaphthalen-1-yl)-2-(3-(4-methylpiperazin-1-yl)propoxy)-5,6,7,8-tetrahydropyrido[3,4-d]pyrimidin-4-yl)piperazin-1-yl)prop-2-en-1-one]
0.0001 to 1	C=CC(=O)N1CCN(c2nc(OC[C@@H]3CCCN3C)nc3c2CCN(c2ccccc2F)C3)CC1CC#N (stereo partly drawn) [Example 227, 2-(1-acryloyl-4-(7-(2-fluorophenyl)-2-(((S)-1-methylpyrrolidin-2-yl)methoxy)-5,6,7,8-tetrahydropyrido[3,4-d]pyrimidin-4-yl)piperazin-2-yl)acetonitrile]
> 1	C=CC(=O)N1CCN(c2nc(OC[C@@H]3CCCN3C)nc3c2CCN(c2c(O)cccc2F)C3)[C@@H](C)C1 [Example 321, 1-[(3S)-4-[7-(2-fluoro-6-hydroxy-phenyl)-2-[[(2S)-1-methylpyrrolidin-2-yl]methoxy]-6,8-dihydro-5H-pyrido[3,4-d]pyrimidin-4-yl]-3-methyl-piperazin-1-yl]prop-2-en-1-one]
0.0001 to 1	C=CC(=O)N1CCN(c2nc(OCCN3CCCCC3)nc3c2CCN(c2cc(O)cc4ccccc24)C3)CC1 [Example 52, 1-[4-[7-(3-hydroxy-1-naphthyl)-2-[2-(1-piperidyl)ethoxy]-6,8-dihydro-5H-pyrido[3,4-d]pyrimidin-4-yl]piperazin-1-yl]prop-2-en-1-one]
> 1	C=CC(=O)N1CCN(c2nc(-c3cccc(CN4CCOCC4)c3)nc3c2CCN(c2cc(O)cc4ccccc24)C3)CC1 [Example 186]
